Source: PMC8727733, “Improvement of glycine biosynthesis from one‐carbon compounds and ammonia catalyzed by the glycine cleavage system in vitro” (Engineering in Life Sciences, 2021)

Biological target: T1, glycine cleavage system (GCS), L protein with P, T and H proteins (Escherichia coli, UniProt P0A9P0)
T1 construct: gene lpdA; printed WP records may differ from the MG1655 alleles; with Glycine dehydrogenase (decarboxylating); Aminomethyltransferase; Glycine cleavage system H protein
T1 sequence (P0A9P0 2-474): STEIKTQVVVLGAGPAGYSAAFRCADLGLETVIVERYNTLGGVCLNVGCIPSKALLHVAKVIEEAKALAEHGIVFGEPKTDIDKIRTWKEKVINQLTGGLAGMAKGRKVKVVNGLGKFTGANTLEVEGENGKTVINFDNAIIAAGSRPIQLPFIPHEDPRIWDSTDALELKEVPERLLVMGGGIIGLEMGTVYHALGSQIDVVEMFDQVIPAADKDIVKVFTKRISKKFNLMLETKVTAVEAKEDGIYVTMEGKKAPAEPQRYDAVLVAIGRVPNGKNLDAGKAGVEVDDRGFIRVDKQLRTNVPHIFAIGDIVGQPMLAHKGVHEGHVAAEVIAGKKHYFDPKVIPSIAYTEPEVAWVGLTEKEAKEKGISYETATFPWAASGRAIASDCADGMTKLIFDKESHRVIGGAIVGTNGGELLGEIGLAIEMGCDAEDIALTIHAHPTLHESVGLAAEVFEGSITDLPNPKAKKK
T1 sequence (P0A6T9 2-129 partner): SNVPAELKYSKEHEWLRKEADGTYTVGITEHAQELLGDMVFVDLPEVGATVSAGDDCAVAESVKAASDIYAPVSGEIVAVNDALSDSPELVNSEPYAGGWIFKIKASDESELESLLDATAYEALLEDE
Assay: glycine-dependent NADH formation, spectrophotometric, reconstituted GCS
Assay type: biochemical
Settings: 5 mM NAD+, 50 mM glycine, 0.5 mM THF, 20 mM DTT, 25 uM PLP, 50 mM Tris-HCl pH 7.5, 37 C; overall glycine cleavage

With `NC(=O)c1ccc[n+]([C@@H]2O[C@H](COP(=O)(O)OP(=O)(O)OC[C@H]3O[C@@H](n4cnc5c(N)ncnc54)[C@H](O)[C@@H]3O)[C@@H](O)[C@H]2O)c1` [NAD+] the “glycine-dependent NADH formation, spectrophotometric, reconstituted GCS” value was “measuring glycine‐dependent NADH formation”.
